{"source": "ChEMBL document CHEMBL1201862", "about": "“PubChem BioAssay data set” (2004)", "experiment_in_all_cases": "DTP human tumour cell line panel, 48 h", "key": {"RPMI-8226": {"system": "RPMI-8226"}, "HCT-116": {"system": "HCT-116"}, "NCI-H226": {"system": "NCI-H226"}, "786-0": {"system": "786-0"}, "BT-549": {"system": "BT-549"}, "CAKI-1": {"system": "CAKI-1"}, "M14": {"system": "M14"}, "SR": {"system": "SR"}, "Malme-3M": {"system": "Malme-3M"}, "MCF7": {"system": "MCF7"}, "A498": {"system": "A498"}, "UACC-257": {"system": "UACC-257"}, "NCI-H23": {"system": "NCI-H23"}, "NCI/ADR-RES": {"system": "NCI/ADR-RES"}, "SF-295": {"system": "SF-295"}, "MDA-MB-231": {"system": "MDA-MB-231"}, "RXF 393": {"system": "RXF 393"}, "SK-MEL-28": {"system": "SK-MEL-28"}, "HL-60": {"system": "HL-60"}, "NCI-H460": {"system": "NCI-H460"}, "SK-OV-3": {"system": "SK-OV-3"}, "SNB-75": {"system": "SNB-75"}, "K562": {"system": "K562"}, "A549": {"system": "A549"}, "T47D": {"system": "T47D"}, "OVCAR-4": {"system": "OVCAR-4"}, "MDA-MB-435": {"system": "MDA-MB-435"}, "KM12": {"system": "KM12"}, "COLO 205": {"system": "COLO 205"}, "SN12C": {"system": "SN12C"}, "DU-145": {"system": "DU-145"}, "MDA-N": {"system": "MDA-N"}, "OVCAR-3": {"system": "OVCAR-3"}, "UACC-62": {"system": "UACC-62"}, "PC-3": {"system": "PC-3"}, "IGROV-1": {"system": "IGROV-1"}, "CCRF-CEM": {"system": "CCRF-CEM"}, "HT-29": {"system": "HT-29"}, "ACHN": {"system": "ACHN"}, "HOP-62": {"system": "HOP-62"}, "HCC 2998": {"system": "HCC 2998"}, "LOX IMVI": {"system": "LOX IMVI"}, "NCI-H522": {"system": "NCI-H522"}, "TK-10": {"system": "TK-10"}, "SW-620": {"system": "SW-620"}, "MOLT-4": {"system": "MOLT-4"}, "OVCAR-8": {"system": "OVCAR-8"}, "SF-268": {"system": "SF-268"}, "SNB-19": {"system": "SNB-19"}, "U-251": {"system": "U-251"}, "HOP-92": {"system": "HOP-92"}, "Hs-578T": {"system": "Hs-578T"}, "OVCAR-5": {"system": "OVCAR-5"}, "HCT-15": {"system": "HCT-15"}, "UO-31": {"system": "UO-31"}, "SF-539": {"system": "SF-539"}, "EKVX": {"system": "EKVX"}, "SK-MEL-5": {"system": "SK-MEL-5"}}, "note": "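Exposure lasted 48 hours, with cells grown in 96-well plates and compounds tested at five concentrations. At the GI50, growth is halved.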 The source made the active and inactive calls. Cut-off read from the data, not from the text of the source: active = GI50 up to about 1.1 µM and inactive = higher."}
{"smiles": "Clc1nc(Cl)nc(NC23CC4CC(CC(C4)C2)C3)n1", "values": [{"measurement": "GI50", "setting": "RPMI-8226", "result": "12 µM (inactive)"}, {"measurement": "GI50", "setting": "HCT-116", "result": "17.1 µM (inactive)"}, {"measurement": "GI50", "setting": "NCI-H226", "result": "21 µM (inactive)"}, {"measurement": "GI50", "setting": "786-0", "result": "17.3 µM (inactive)"}, {"measurement": "GI50", "setting": "BT-549", "result": "19.3 µM (inactive)"}, {"measurement": "GI50", "setting": "CAKI-1", "result": "8.09 µM (inactive)"}, {"measurement": "GI50", "setting": "M14", "result": "18 µM (inactive)"}, {"measurement": "GI50", "setting": "SR", "result": "20.1 µM (inactive)"}, {"measurement": "GI50", "setting": "Malme-3M", "result": "16.2 µM (inactive)"}, {"measurement": "GI50", "setting": "MCF7", "result": "32.1 µM (inactive)"}, {"measurement": "GI50", "setting": "A498", "result": "> 43.4 µM (inactive)"}, {"measurement": "GI50", "setting": "UACC-257", "result": "17.3 µM (inactive)"}, {"measurement": "GI50", "setting": "NCI-H23", "result": "18.5 µM (inactive)"}, {"measurement": "GI50", "setting": "NCI/ADR-RES", "result": "21 µM (inactive)"}, {"measurement": "GI50", "setting": "SF-295", "result": "19.7 µM (inactive)"}, {"measurement": "GI50", "setting": "MDA-MB-231", "result": "17.9 µM (inactive)"}, {"measurement": "GI50", "setting": "RXF 393", "result": "16.7 µM (inactive)"}, {"measurement": "GI50", "setting": "SK-MEL-28", "result": "19.6 µM (inactive)"}, {"measurement": "GI50", "setting": "HL-60", "result": "3.44 µM (inactive)"}, {"measurement": "GI50", "setting": "NCI-H460", "result": "26.3 µM (inactive)"}, {"measurement": "GI50", "setting": "SK-OV-3", "result": "32.3 µM (inactive)"}, {"measurement": "GI50", "setting": "SNB-75", "result": "17.5 µM (inactive)"}, {"measurement": "GI50", "setting": "K562", "result": "13.7 µM (inactive)"}, {"measurement": "GI50", "setting": "A549", "result": "20 µM (inactive)"}, {"measurement": "GI50", "setting": "T47D", "result": "17.2 µM (inactive)"}, {"measurement": "GI50", "setting": "OVCAR-4", "result": "17.7 µM (inactive)"}, {"measurement": "GI50", "setting": "MDA-MB-435", "result": "16.2 µM (inactive)"}, {"measurement": "GI50", "setting": "KM12", "result": "14.9 µM (inactive)"}, {"measurement": "GI50", "setting": "COLO 205", "result": "17.5 µM (inactive)"}, {"measurement": "GI50", "setting": "SN12C", "result": "18.1 µM (inactive)"}, {"measurement": "GI50", "setting": "DU-145", "result": "16.7 µM (inactive)"}, {"measurement": "GI50", "setting": "MDA-N", "result": "17.4 µM (inactive)"}, {"measurement": "GI50", "setting": "OVCAR-3", "result": "18.8 µM (inactive)"}, {"measurement": "GI50", "setting": "UACC-62", "result": "17.9 µM (inactive)"}, {"measurement": "GI50", "setting": "PC-3", "result": "> 34.8 µM (inactive)"}, {"measurement": "GI50", "setting": "IGROV-1", "result": "13.7 µM (inactive)"}, {"measurement": "GI50", "setting": "CCRF-CEM", "result": "7.55 µM (inactive)"}, {"measurement": "GI50", "setting": "HT-29", "result": "17.9 µM (inactive)"}, {"measurement": "GI50", "setting": "ACHN", "result": "35.3 µM (inactive)"}, {"measurement": "GI50", "setting": "HOP-62", "result": "17.7 µM (inactive)"}, {"measurement": "GI50", "setting": "HCC 2998", "result": "20.3 µM (inactive)"}, {"measurement": "GI50", "setting": "LOX IMVI", "result": "13.4 µM (inactive)"}, {"measurement": "GI50", "setting": "NCI-H522", "result": "16.7 µM (inactive)"}, {"measurement": "GI50", "setting": "TK-10", "result": "17.7 µM (inactive)"}, {"measurement": "GI50", "setting": "SW-620", "result": "16.7 µM (inactive)"}, {"measurement": "GI50", "setting": "MOLT-4", "result": "17.9 µM (inactive)"}, {"measurement": "GI50", "setting": "OVCAR-8", "result": "18.1 µM (inactive)"}, {"measurement": "GI50", "setting": "SF-268", "result": "19.2 µM (inactive)"}, {"measurement": "GI50", "setting": "SNB-19", "result": "21.4 µM (inactive)"}, {"measurement": "GI50", "setting": "U-251", "result": "15.5 µM (inactive)"}, {"measurement": "GI50", "setting": "HOP-92", "result": "17.2 µM (inactive)"}, {"measurement": "GI50", "setting": "Hs-578T", "result": "11.8 µM (inactive)"}, {"measurement": "GI50", "setting": "OVCAR-5", "result": "19.5 µM (inactive)"}, {"measurement": "GI50", "setting": "HCT-15", "result": 15.6, "unit": "µM"}, {"measurement": "GI50", "setting": "UO-31", "result": "9.33 µM (inactive)"}, {"measurement": "GI50", "setting": "SF-539", "result": "17.5 µM (inactive)"}, {"measurement": "GI50", "setting": "EKVX", "result": "19.5 µM (inactive)"}, {"measurement": "GI50", "setting": "SK-MEL-5", "result": "13.7 µM (inactive)"}]}
